Literature values as cited in US7452892B2, “Triazolopyrimidine cannabinoid receptor 1 antagonists” (Bristol-Myers Squibb Company, priority 2005, dated 2008).

Assays:
[1] = chronic administration for two weeks
[2] = 16 week trial period

For `Cc1c(C(=O)NN2CCCCC2)nn(-c2ccc(Cl)cc2Cl)c1-c1ccc(I)cc1` [AM-251], the body weight [1] is listed as “substantial body weight reduction”.

For `Cc1c(C(=O)NN2CCCCC2)nn(-c2ccc(Cl)cc2Cl)c1-c1ccc(Cl)cc1` [SR-141716], the “body weight in human subjects” value [2] is listed as “dose-dependently reduced body weight”.
